According to patent publication EP2459571B1, “NITROIMIDAZOOXAZINES AND THEIR USES IN ANTI-TUBERCULAR THERAPY” (priority 2009, dated 2011):
≈ marks a conversion by molar mass, not a printed value.

Legend:
in vivo = details: mouse, po, 40 mg/kg
[1] = Stability to human liver microsomes; type: in vitro ADME; details: pH 7.4, 37 °C, 0.5 mg/mL protein, NADPH regenerating system, 60 min
M. tuberculosis Erdman [2] = test system: M. tuberculosis Erdman; set-up: species or system BALB/c mice; details: mouse, po, 100 mg/kg
[3] = test system: replicating Mycobacterium tuberculosis; test: MIC, microplate Alamar blue assay (MABA), 8 day; type: cell-based; details: 192 h, read-out: MIC MABA (aerobic)
[4] = Stability to mouse liver microsomes; type: in vitro ADME, CD-1 mouse; details: pH 7.4, 37 °C, 0.5 mg/mL protein, NADPH regenerating system, 60 min
[5] = test system: M. tuberculosis bacteria in the non-replicating state; test: microbe, parasite or virus in culture; type: cell-based; details: Mycobacterium tuberculosis, 264 h, low oxygen, 11 day, read-out: MIC LORA (anaerobic)
[6] = CD-1 mice, oral, 40 mg/kg; for t½ (h) plasma: suspension in 0.5% carboxymethylcellulose/0.08% Tween 80
M. tuberculosis Erdman [7] = type: in vivo, BALB/c mice; details: mouse, in vivo, po, 100 mg/kg

Row | Structure (SMILES) | AUC (in vivo) | remaining at 1 h, 1 µM [1] | In vivo efficacy vs PA-824, Acute (M. tuberculosis Erdman [2]) | MIC [3] | remaining at 1 h, 1 µM [4] | MIC [5] | Cmax plasma [6] | t½ (h) plasma [6] | In vivo efficacy vs PA-824, Chronic (M. tuberculosis Erdman [7])
1 | O=[N+]([O-])c1cn2c(n1)OC[C@@H](OCc1ccn(-c3ccc(OC(F)(F)F)cc3)n1)C2 [compound 10, (6S)-2-nitro-6-({1-[4-(trifluoromethoxy)phenyl]-1H-pyrazol-3-yl}methoxy)-6,7-dihydro-5H-imidazo[2,1-A][1,3]oxazine] | 31500 ng·h/mL | 87% | 41 | 0.05 µM (≈ 0.0213 µg/mL) | 67% | 0.61 µM (≈ 0.259 µg/mL) |  |  | 
2 | O=[N+]([O-])c1cn2c(n1)OC[C@@H](OCc1ccc(/C=C/c3ccc(OC(F)(F)F)cc3)cc1)C2 [compound 31, (6S)-2-Nitro-6-[(4-{(E)-2-[4-(trifluoromethoxy)phenyl]ethenyl}benzyl)oxy]-6,7-dihydro-5H-imidazo[2,1-b][1,3]oxazine] |  | 99% | 5.8 | 0.02 µM (≈ 0.00923 µg/mL) | 98% | 27 µM (≈ 12.5 µg/mL) |  |  | 
3 | O=[N+]([O-])c1cn2c(n1)OC[C@@H](OCc1ccc(C#Cc3ccc(C(F)(F)F)nc3)cn1)C2 [compound 25, (6S)-2-Nitro-6-[(5-{[6-(trifluoromethyl)-3-pyridinyl]ethynyl}-2-pyridinyl)methoxy]-6,7-dihydro-5H-imidazo[2,1-b][1,3]oxazine] |  | 88% |  | 0.035 µM (≈ 0.0156 µg/mL) | 91% | 0.74 µM (≈ 0.33 µg/mL) |  |  | 
4 | O=[N+]([O-])c1cn2c(n1)OC[C@@H](OCc1ccc(-c3ccc(C(F)(F)F)cn3)cc1)C2 [compound 8, (6S)-2-Nitro-6-({4-[5-(trifluoromethyl)-2-pyridinyl]benzyl}oxy)-6,7-dihydro-5H-imidazo[2,1-b][1,3]oxazine] | 67300 ng·h/mL |  | 33 | 0.06 µM (≈ 0.0252 µg/mL) |  | 1 µM (≈ 0.42 µg/mL) | 1100 ng/mL | 8.8 h | 1.7
5 | O=[N+]([O-])c1cn2c(n1)OC[C@@H](OCc1ccc(Cc3ccc(OC(F)(F)F)cc3)cc1)C2 [compound 17, (6S)-2-Nitro-6-({4-[4-(trifluoromethoxy)benzyl]benzyl}oxy)-6,7-dihydro-5H-imidazo[2,1-b][1,3]oxazine] |  | 85% |  | 0.02 µM (≈ 0.00899 µg/mL) | 70% | 1.1 µM (≈ 0.494 µg/mL) |  |  | 
6 | O=[N+]([O-])c1cn2c(n1)OC[C@@H](OCc1ccc(-c3ccc(OC(F)(F)F)cc3)cc1F)C2 [compound 12, (6S)-6-{[3-Fluoro-4'-(trifluoromethoxy)[1,1'-biphenyl]-4-yl]methoxy}-2-nitro-6,7-dihydro-5H-imidazo[2,1-b][1,3]oxazine] | 549000 ng·h/mL |  | 33 | 0.017 µM (≈ 0.00771 µg/mL) |  | 1.2 µM (≈ 0.544 µg/mL) | 6700 ng/mL |  | 16
7 | O=[N+]([O-])c1cn2c(n1)OC[C@@H](OCc1ccc(-c3ccc(F)cc3)nc1)C2 [compound 5, (6S)-6-{[6-(4-Fluorophenyl)-3-pyridinyl]methoxy}-2-nitro-6,7-dihydro-5H-imidazo[2,1-b][1,3]oxazine] | 136000 ng·h/mL |  | 7.8 | 0.06 µM (≈ 0.0222 µg/mL) |  | 2.9 µM (≈ 1.07 µg/mL) | 5300 ng/mL | 2.7 h | 20
8 | O=[N+]([O-])c1cn2c(n1)OC[C@@H](OCC#Cc1ccc(-c3ccc(OC(F)(F)F)cc3)cc1)C2 [compound 30, (6S)-2-Nitro-6-({3-[4'-(trifluoromethoxy)[1,1'-biphenyl]-4-yl]-2-propynyl}oxy)-6,7-dihydro-5H-imidazo[2,1-b][1,3]oxazine] | 13600 ng·h/mL |  | 89 | 0.16 µM (≈ 0.0735 µg/mL) |  | 0.99 µM (≈ 0.455 µg/mL) | 570 ng/mL | 7.5 h | 11
